Here are results for four compounds from patent publication US7842470B2, “Method for pharmacoperones correction of GnRHR mutant protein misfolding” (Oregon Health & Science University, priority 2001, dated 2010).

SMILES strings stand for the structures. Changes are numbered by the printed parent chain.

Test [1] has as its target T1, WT hGnRHR (Homo sapiens, UniProt P30968).
T1 construct: expressed in transfected cells; host or cells: COS-7
T1 sequence (P30968 1-328): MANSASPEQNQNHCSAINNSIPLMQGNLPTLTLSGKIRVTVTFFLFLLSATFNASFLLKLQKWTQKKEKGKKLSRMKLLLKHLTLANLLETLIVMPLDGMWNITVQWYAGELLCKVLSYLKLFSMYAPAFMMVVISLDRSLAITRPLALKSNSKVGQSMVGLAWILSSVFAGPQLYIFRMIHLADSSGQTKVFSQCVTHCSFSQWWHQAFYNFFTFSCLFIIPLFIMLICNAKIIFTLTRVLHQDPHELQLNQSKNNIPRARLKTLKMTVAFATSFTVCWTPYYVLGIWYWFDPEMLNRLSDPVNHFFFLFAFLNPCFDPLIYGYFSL
Nature of the test: IP production in COS-7 cells transfected with WT hGnRHR, Buserelin dose response (FIG. 13 inset). In kind it is cell-based. The following applies: COS-7 cells transfected with 100 ng of WT hGnRHR.
Description: For tranfections, 5×10^4 COS-7 cells were plated in 0.25 ml growth medium in 48 well Costar cell culture plates. Twenty-four hours after plating, the cells were washed once with 0.5 ml OPTI-MEM (Promega, Madison, Wis.) then transfected with 100 ng total cDNA (pcDNA3.1+without insert “empty vector” was included to bring the total cDNA to 100 ng/well, unless otherwise indicated) and 1 μl lipofectamine in 0.125 ml OPTI-MEM (room temperature), according to manufacture's instructions. For co-transfection, the cells were co-transfected with WT GnRHR (5 ng/well) and empty vector or mutant GnRHR (95 ng/well) or other GPCR cDNAs, as indicated, using 1 μl Lipofectamine (Promega, Madison, Wis.) in 0.125 ml Opti-MEM. Constant amounts of Opti-MEM were achieved by the addition of sterile milli-Q H2O to the cDNA mixtures. […]
The IP production was measured 27 hours after transfection, as described in Example 1, except that following the preloading, cells were treated for 2 hours in 0.25 ml of Buserelin (100 nM), and at the end of the incubation period, the cells were frozen and thawed in the presence of 0.5 ml of 0.1 M formic acid. Data (n≧3) was analyzed with one-way ANOVA and then paired Student's t-test (SigmaStat 3.0, Jandel Scientific Software, Chicago, Ill.; P<0.05 was considered significant). […]

Test [2] addresses T2, mutant GnRHR (Homo sapiens, UniProt P30968, E90K).
T2 construct: expressed in transfected cells; host or cells: COS-7
T2 sequence (P30968 1-328 E90K): T1 sequence (P30968 1-328) with E90K
Kind of test: Pharmacological rescue of GnRHR mutants (Example 1), IP production and agonist binding. In kind it is cell-based.
Description: WT and mutant hGnRHR were separately transiently expressed in COS-7 cells using standard molecular biology methods (Leaños-Miranda et al., J. Clin. Endo. Metab., 87:4825-8, 2002). Briefly, cells were maintained in growth medium (DMEM) containing 10% fetal calf serum (FCS; Life Technologies, Grand Island, N.Y.) and 20 μg/ml gentamicin (Gemini Bioproducts, Calabasas, Calif.) in a 5% CO2 humidified atmosphere at 37° C. One hundred thousand cells/well were seeded in 24-well plates (Costar, Cambridge, Mass.). Twenty-four hours after plating, the cells were transfected with 0.05 μg DNA per well (for IP production assay) or 0.1 μg DNA per well (for saturation binding studies) using 2 μl lipofectamine in 0.25 ml OPTI-MEM containing 1% DMSO (vehicle) or 1 μg/ml of each indole, quinoline or erythromycin macrolide prepared in vehicle.
After five hours, 0.25 ml of DMEM containing 20% FCS with or without indole, quinoline or erythromycin macrolide (as indicated) was added to each well. The cells were incubated for an additional 18 hours at 37° C., then washed and fresh growth medium with (1 μg/ml) or without the therapeutic agent was added to the cells for another 28 hours at 37° C. […]
The quantification of IP production and saturation binding were determined as described previously (Huckle and Conn, Methods Enzymol. 141:149-55, 1987).
To determine the saturation binding, the cells were washed twice with warm DMEM/BSA prior to incubating with the GnRH agonist [^125I]-buserelin [D-tert-butyl-Ser^6, des-Gly^10, Pro^9, ethylamide-GnRH; specific activity, 700 μCi/μg; 230,000 cpm/0.5 ml, pH 7.4; Hoeschst-Roussel Pharmaceuticals (Somerville, N.J.); also see Marian et al., Mol. Pharmacol. 19:399-405, 1981] and nonspecific binding was measured in the presence of 1 μM GnRH (NIDDK National Hormone and Peptide Program, Bethesda, Md.). […] The sample was transferred to a glass tube and counted in a gamma counter (Packard Instruments; Downers Grove, Ill.). Specific binding was calculated by subtracting non-specific binding (binding measured in the presence of 1 μM GnRH) from total binding (no GnRH). […]

Consider `CCNC(=O)[C@@H]1CCCN1C(=O)[C@H](CCCNC(=N)N)NC(=O)[C@H](CC(C)C)NC(=O)[C@@H](COC(C)(C)C)NC(=O)[C@H](Cc1ccc(O)cc1)NC(=O)[C@H](CO)NC(=O)[C@H](Cc1c[nH]c2ccccc12)NC(=O)[C@H](Cc1cnc[nH]1)NC(=O)[C@@H]1CCC(=O)N1` [Buserelin, D-tert-butyl-Ser^6, des-Gly^10, Pro^9, ethylamide-GnRH], for which the “Buserelin concentration giving maximal response on IP production” value in test [1] is listed as 10^−7 M.

As to `Cc1cc(C)cc(-c2[nH]c3ccc(C(C)(C)C(=O)N4CCN(C)CC4)cc3c2[C@H](C)CNCCc2ccc(C(=O)O)cc2)c1.O=C(O)C(F)(F)F` [IN31b, (2S)-N-[2-(4-carboxyphenyl)ethyl]-2-[5-[1,1-dimethyl-2-(4-methylpiperazin-1-yl)-2-oxoethyl]-2-(3,5-dimethylphenyl)-1H-indol-3-yl]propan-1-aminium trifluoroacetate], in test [2], the “restoration of function to mutant GnRHR” value is “known not to bind to or restore function to mutant protein”.

Consider `CC[C@H]1OC(=O)[C@H](C)[C@@H](O[C@H]2C[C@@](C)(OC)[C@@H](O)[C@H](C)O2)[C@H](C)[C@@H](O[C@@H]2O[C@H](C)C[C@H](N(C)C)[C@H]2O)[C@](C)(O)C[C@@H](C)C(=O)[C@H](C)[C@@H](O)[C@]1(C)O` [A-7662.0, Erythromycin A], for which, in test [2], the “restoration of function to mutant GnRHR” value is “known not to bind to or restore function to mutant protein”.

With `COc1cc2c(cc1OC)CN(C(=O)c1cc3c(OCC[C@@H]4CCCCN4)c(-c4cc(C)cc(C)c4)c(=O)[nH]c3cc1Cl)CC2.O=C(O)C(F)(F)F` [Q08, (2S)-2-(2-{[7-chloro-6-[(6,7-dimethoxy-3,4-dihydroisoquinolin-2(1H)-yl)carbonyl]-3-(3,5-dimethylphenyl)-2-oxo-1,2-dihydroquinolin-4-yl]oxy}ethyl)piperidinium trifluoroacetate], the “restoration of function to mutant GnRHR” value in test [2] was “known not to bind to or restore function to mutant protein”.
